Experimental data: patent US11795454B2, “Targeted delivery system” (Cedars-Sinai Medical Center, priority 2009, dated 2023)
Like-named read-outs stand apart in the source and are kept apart here.

B1: HerDox: self-assembled nanoparticle of oligonucleotide duplex, doxorubicin and HerPBK10 (conjugate)
chain: LPPRLKEMKSQESAAGSKLVLRCETSSEYSSLRFKWFKNGNELNRKNKPQNIKIQKKPGKSELRINKASLADSGEYMCKVISKLGNDSASANITIVESNEIITGMPASTEGAYVSSESPIRISVSTEGANTSSSTSTSTTGTSHLVKCAEKEKTFCVNGGECFMVKDLSNPSRYLCKCQPGFTGARCTENVPMKVQNQEKAEELYMRRAAMYEEGPPPSYESVVSAAPVAAALGSPFDAPLDPPFVPPRYLRPTGGRNSIRYSELAPLFDTTRVYLVDNKSTDVASLNYQNDHSNFLTTVIQNNDYSPGEASTQTINLDDRSHWGGDLKTILHTNMPNVNEFMFTNKFKARVMVSRLPTKDNQVELKYEWVEFTLPEGNYSETMTIDLMNNAIVEHYLKVGRQNGVLESDIGVKFDTRNFRLGFDPVTGLVMPGVYTNEAFHPDIILLPGCGVDFTHSRLSNLLGIRKRQPFQEGFRITYDDLEGGNIPALLDVDAYQASLKDDTEQGGGGAGGSNSSGSGAEENSNAAAAAMQPVEDMNDHAIRGDTFATRAEEKRAEAEAAAEAAAPAAQPEVEKPQKKPVIKPLTEDSKKRSYNLISNDSTFTQYRSWYLAYNYGDPQTGIRSWTLLCTPDVTCGSEQVYWSLPDMMQDPVTFRSTRQISNFPVVGAELLPVHSKSFYNDQAVYSQLIRQFTSLTHVFNRFPENQILARPPAPTITTVSENVPALTDHGTLPLRNSIGGVQRVTITDARRRTCPYVYKALGIVSPRVLSSRTFKKKKKKKKKK

Assays:
U87 human glioma tumors = test system: U87 human glioma tumors
Experimental: FIG. 29A, Live mouse imaging of HerDox at indicated time points after injection. Arrows, Tumors. 29B-29C, Comparative biodistribution of HerDox and Dox in tissues harvested at 3 h post-injection. FIG. 29B, Imaging of biodistribution in harvested tissues. Pseudocolored FI corresponds to the color bar. Max, highest FI. FIG. 29C, Quantification of HerDox and Dox biodistribution, showing Dox FI/tissue. FIG. 29D. Comparative pharmacokinetics of HerDox and Dox in mice with tumors expressing differential HER2. Tissues were harvested from independently injected mice euthanized at indicated time points after injection and FI/tissue acquired using a small animal imaging system as described herein.
Heart rate and body temperature were monitored. […] Three beats were averaged for each measurement.
A customized macro-illumination and detection system was used for in vivo and tissue imaging. Dox was excited with the 488 nm line of a Coherent Innova ArKr laser. […] Fluorescence light was collected via a telecentric lens (Melles-Griot 59LGG925 base lens with a 59LGL428 attachment lens) that can operate at f/#2, has a magnification of 0.9, working distance of 257 mm and a depth of field of 81.5 mm. […] ImageJ was used to calculate average fluorescence intensities of the overall region of each selected tissue. […]

[1] = Experimental: FIG. 26A. Stability in blood. […] N=3. […] Control conditions preventing digest include using heat-inactivated (HI) serum and 0° C. incubation. FIG. 26C. Assessing Dox retention in serum.
To study stability in blood, HerDox or Dox (60 uM each) were incubated in equivalent volumes of whole blood (containing 0.5 mM EDTA to prevent coagulation and freshly collected from the aorta of an anesthetized mouse following IACUC-approved procedures) for up to 60 min at 37° C., followed by centrifugation through 10K mwco filters. Retentate and filtrate fluorescences were extrapolated against a Dox calibration curve performed in blood plasma to correct for plasma-induced fluorescence shift. […] Control conditions preventing digest include using heat-inactivated serum and 0° C. incubation. […] Filtrates were collected and membranes washed 3× with HBS before collection and fluorescence measurement of retentates. All fluorescence spectra were obtained using a 515 nm cutoff filter.

MDA-MB-435 (HER2+) cells = experiment: HerDox targeted toxicity in vitro, separate cultures; type: cell-based, human; conditions: MDA-MB-435, day 3
Experimental: All treatments, N=3. FIG. 27A. Comparing cytotoxicity to HER2+ (MDAMB-435) and HER2− (MDA-MB-231) cells in separate cultures. Left, Relative survival (as % of untreated cells) on day 3 of treatment. Right, Micrograph of live cells after treatment. Control, mock (HBS) treatment. FIG. 27B, Receptor specificity of cytotoxicity. […] FIG. 27C, Toxicity to cells displaying differential HER2. Cytotoxicities from HerDox titrations were assessed on each cell line by metabolic assay and confirmed by crystal violet stain on day 3 of treatment. CD50 values (shown in log scale) were determined by non-linear regression analyses of HerDox killing curves using GraphPad Prism. The relative HER2 level of each cell line is shown next to each CD50 value. FIG. 27D, Targeting in a mixed MDA-MB-435(HER2+,GFP−)/MDA-MB-231(HER2−,GFP+) cell culture. Survival was determined by calculating the relative doubling time (DT) of experimental (exp) cells normalized by mock-treated (con) cells based on crystal violet stains (total cells) and GFP fluorescence (MDAMB-231 cells), and applying DTMDA-MB-435=DTTotal-DTMDA-MB-231 as previously described. Relative survival is shown for Day 2 of treatment. FIG. 27E, Targeted glioma cell death in vitro. U251 cells were treated once with the indicated HerDox (and competitive inhibitor where indicated) or Dox doses and measured for cell survival at the indicated time points after treatment. * P<0.05 compared to Mock.
For all in vitro treatments, cell lines were grown for ˜36 h after plating (104/well in 96-well dishes) to allow receptor re-expression, followed by media replacement with new media containing indicated constructs in reduced volume at the indicated final molarities for 4 h with rocking, followed by supplementation with additional media and continued growth for the indicated time periods. Except for the experiments performed on the U251 glioma cells (which received a one-time treatment), cells received these treatments daily while separate sets of wells were assessed for cell death by either metabolic assay (CellTiter Promega Corporation, Madison, WI, USA) or crystal violet stain each day. Where indicated, cells received competitive inhibitor (eHRG) at 10× molar excess for 30 min-1 h at 4° C. before treatment. Treatment of mixed (HER2+/HER2−) cell cultures with HerDox or Dox (0.5 uM), and cell surface receptor subunit level determination were performed as previously described.

MDA-MB-435 cells = experiment: Uptake and intracellular trafficking, confocal fluorescence microscopy; type: cell-based, human; conditions: 0.5 uM final Dox concentration
Experimental: FIG. 28A. […] Dox fluorescence (magenta) is overlaid on DIC images. FIG. 28D. […] Relaxed (nicked) and supercoiled (sc) plasmid forms are indicated.
General procedures: MDA-MB-435 cells were plated ˜36 h before receiving HerDox or Dox (0.5 uM final Dox concentration) in fresh media containing the indicated constructs. For live cell assays, the cells (plated in chambers) were imaged at the indicated time points after treatment, under brightfield or DIC (where indicated) and fluorescence modes to identify the cell structure and Dox fluorescence, respectively. For fixed cell assays, the cells were plated on cover slips in 24-well plates (1×10^5 cells/well) ˜36 h before receiving HerDox or Dox in fresh complete media at 37° C., and separate samples fixed and processed for immunofluorescence against HerPBK10 following established procedures. A Leica SP2 laser-scanning confocal fluorescence microscope was used for fixed and live cell imaging.
The ability to visualize nuclear Dox fluorescence after cell exposure to free Dox has been used frequently to detect Dox uptake in cells, and has been attributed to interaction with histones. To determine whether these localization differences indicate that Dox remains attached to HerPBK10 during uptake, the inventors used a counterstain for HerPBK10.

MDA-MB-435 tumors = experiment: Therapeutic efficacy in vivo, daily i.v. injections for 7 days; set-up: species or system mouse; conditions: for tumor growth: 0.004 mg/kg Dox equivalent, daily i.v. for seven days

Row | Molecule | delivery to U87 tumors higher compared to MDA-MB-435 tumors (U87 human glioma tumors; mouse, in vivo, iv) | Dox loss from retentates [1] | protection of the DNA duplex from serum degradation [1] | remaining free Dox (weak or non-specific binding to serum proteins) ([1]; mouse, serum) | toxicity / survival (MDA-MB-435 (HER2+) cells) | subcellular localization of Dox fluorescence (MDA-MB-435 cells) | tumor growth (MDA-MB-435 tumors) | tumor ablation compared with HerDox (MDA-MB-435 tumors; 10× higher Dox dose (0.04 mg/kg)) | delivery to U87 tumors lower compared to MDA-MB-435 tumor-bearing mice (U87 human glioma tumors; i.v.) | Dox loss from retentates ([1]; 100% mouse serum, 30 min at 37° C., 10K mwco) | dose for tumor ablation lower compared to untargeted doxorubicin (MDA-MB-435 tumors; intravenous delivery)
1 | COc1cccc2c1C(=O)c1c(O)c3c(c(O)c1C2=O)C[C@@](O)(C(=O)CO)C[C@@H]3O[C@H]1C[C@H](N)[C@H](O)[C@H](C)O1.Cl [Dox, Doxorubicin-HCl, reference compound] | 200-300 fluorescence units per tissue | ~70% | partially protected the DNA from serum degradation | ~30% | no preference | detectable at the nuclear periphery immediately after administration | low efficacy | slightly less effective | – | – | –
2 | B1 | – | – | – | – | significant toxicity | nuclear accumulation by 60 min | ablation of tumor growth | – | ~50% | no Dox loss was detected | > 10 ×
